These are literature values, as cited in patent US6043366A (priority 1997, dated 2000).

Data set [1] relates to LC 132 receptor. The conditions noted are these: cells in culture.
In data set [2] the test system is mice.

Consider “OFQ: seventeen amino-acid-long peptide (F-G-G-F-T-G-A-R-K-S-A-R-K-L-A-N-Q), isolated from rat brain, natural ligand to the G-protein coupled receptor OFQ-R (FGGFTGARKSARKLANQ; Nociceptin; UniProt Q13519 130-146, looked up)”, for which the “adenylate cyclase in CHO(LC 132+) cells” value in data set [1] is “inhibits adenylate cyclase”. Further, in data set [2] (administered intra-cerebroventricularly to mice), the hyperalgesia entry was “induces hyperalgesia”. Besides, in data set [2] (injected intra-cerebroventricularly in mice), the locomotive activity result is “slowed down locomotive activity”.
